The values that follow come from article PMC5896778 (Developmental cell, 2018).

Test [1] has as its system CDK activity and EB3 abundance in HCMV AD169-infected NHDFs. The following applies: 3 µM.
For test [2], the system named is MT formation at Golgi fragments in HCMV-infected NHDFs. As to the kind of experiment: Nocodazole washout assay, MT nucleation. As to conditions: 10µM nocodazole for 8h, mock or AD169-infected NHDFs, 3d. Type of test: cell-based, human.

For the molecule `Nc1nc(Nc2ccc(S(N)(=O)=O)cc2)nn1C(=O)c1c(F)cccc1F` [JNJ-7706621], in test [1] (AD169 MOI 3, WB), the “effect on IE2 expression” value was “modestly affected IE2 expression”. For the same molecule, the “CDK substrate phosphorylation and increases in EB3 abundance by 3d.p.i.” value in test [1] (daily inhibitor replenishment, AD169 MOI 3, 3d.p.i.) is given as “insensitive”. Further, the “effect on HCMV-induced CDK activation (pan-CDK1 substrate antibody)” value in test [1] (replaced every 24h, AD169 MOI 3, WB) is “suppressed HCMV-induced CDK activation”. Besides, the “effect on HCMV-induced increases in EB3” value in test [1] (replaced every 24h, AD169 MOI 3, WB, 1 and 2 d.p.i.) was “prevented increases in EB3 at 1 and 2 d.p.i”.
On to `COC(=O)Nc1nc2ccc(C(=O)c3cccs3)cc2[nH]1` [nocodazole], for which the “effect on MTs, Golgi and AC structures” value in test [2] was “depolymerized MTs and dispersed Golgi and AC structures”.
